Assay results taken from ChEMBL document CHEMBL4837249, “Discovery of Potent Antiallergic Agents Based on an o-Aminopyridinyl Alkynyl Scaffold” (J Med Chem, 2021).

What was measured:
[1] = target: T1, Cytoplasmic tyrosine-protein kinase BMX (Homo sapiens) (UniProt P51813); test: Inhibition of human full length recombinant Bmx at 5 nM by radiometric scintillation counting analysis relative to control
T1 sequence (whole entry): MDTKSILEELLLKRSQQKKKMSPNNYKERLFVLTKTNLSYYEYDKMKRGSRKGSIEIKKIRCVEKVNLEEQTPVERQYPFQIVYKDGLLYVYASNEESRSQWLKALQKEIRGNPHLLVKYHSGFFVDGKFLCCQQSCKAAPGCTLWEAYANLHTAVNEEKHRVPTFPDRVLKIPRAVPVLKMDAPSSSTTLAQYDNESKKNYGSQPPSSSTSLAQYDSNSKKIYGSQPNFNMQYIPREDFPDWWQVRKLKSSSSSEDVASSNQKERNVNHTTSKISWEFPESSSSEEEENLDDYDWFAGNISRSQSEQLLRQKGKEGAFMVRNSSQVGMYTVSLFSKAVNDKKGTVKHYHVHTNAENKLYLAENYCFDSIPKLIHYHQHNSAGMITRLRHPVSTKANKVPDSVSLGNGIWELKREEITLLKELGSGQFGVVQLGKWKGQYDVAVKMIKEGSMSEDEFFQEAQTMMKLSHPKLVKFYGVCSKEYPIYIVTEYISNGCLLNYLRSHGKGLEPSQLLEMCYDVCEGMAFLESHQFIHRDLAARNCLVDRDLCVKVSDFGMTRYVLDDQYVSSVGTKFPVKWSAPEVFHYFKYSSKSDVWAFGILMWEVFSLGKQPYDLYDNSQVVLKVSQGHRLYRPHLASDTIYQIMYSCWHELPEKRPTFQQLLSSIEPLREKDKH

[2] = target: Tyrosine-protein kinase BTK (Homo sapiens) (UniProt Q06187); test: Inhibition of human full length recombinant BTK at 5 nM by radiometric scintillation counting analysis relative to control
[3] = target: T2, Tyrosine-protein kinase CSK (Homo sapiens, UniProt P41240); test: Inhibition of human full length recombinant CSK at 5 nM by radiometric scintillation counting analysis relative to control
T2 sequence (P41240 2-450 limits assumed): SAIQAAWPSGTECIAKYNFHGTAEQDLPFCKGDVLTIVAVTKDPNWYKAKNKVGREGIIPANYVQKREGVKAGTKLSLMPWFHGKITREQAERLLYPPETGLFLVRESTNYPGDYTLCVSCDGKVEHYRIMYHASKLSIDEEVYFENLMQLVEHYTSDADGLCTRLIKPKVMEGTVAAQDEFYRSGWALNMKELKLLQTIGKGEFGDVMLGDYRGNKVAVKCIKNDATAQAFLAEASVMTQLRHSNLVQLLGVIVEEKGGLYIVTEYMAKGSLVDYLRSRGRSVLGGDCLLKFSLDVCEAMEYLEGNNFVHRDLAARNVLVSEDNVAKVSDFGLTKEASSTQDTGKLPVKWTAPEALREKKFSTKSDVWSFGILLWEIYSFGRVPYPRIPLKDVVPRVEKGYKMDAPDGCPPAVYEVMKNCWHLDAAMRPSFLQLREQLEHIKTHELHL

[4] = target: Macrophage colony-stimulating factor 1 receptor (Homo sapiens, UniProt P07333); test: Inhibition of human recombinant CSF1R using ATP/Ulight-TK peptide at 5 nM incubated for 15 mins relative to control
[5] = target: T3, Tyrosine-protein kinase ITK/TSK (Homo sapiens) (UniProt Q08881); test: Inhibition of human recombinant ITK (352 to 617) at 5 nM by radiometric scintillation counting analysis relative to control
T3 sequence (whole entry): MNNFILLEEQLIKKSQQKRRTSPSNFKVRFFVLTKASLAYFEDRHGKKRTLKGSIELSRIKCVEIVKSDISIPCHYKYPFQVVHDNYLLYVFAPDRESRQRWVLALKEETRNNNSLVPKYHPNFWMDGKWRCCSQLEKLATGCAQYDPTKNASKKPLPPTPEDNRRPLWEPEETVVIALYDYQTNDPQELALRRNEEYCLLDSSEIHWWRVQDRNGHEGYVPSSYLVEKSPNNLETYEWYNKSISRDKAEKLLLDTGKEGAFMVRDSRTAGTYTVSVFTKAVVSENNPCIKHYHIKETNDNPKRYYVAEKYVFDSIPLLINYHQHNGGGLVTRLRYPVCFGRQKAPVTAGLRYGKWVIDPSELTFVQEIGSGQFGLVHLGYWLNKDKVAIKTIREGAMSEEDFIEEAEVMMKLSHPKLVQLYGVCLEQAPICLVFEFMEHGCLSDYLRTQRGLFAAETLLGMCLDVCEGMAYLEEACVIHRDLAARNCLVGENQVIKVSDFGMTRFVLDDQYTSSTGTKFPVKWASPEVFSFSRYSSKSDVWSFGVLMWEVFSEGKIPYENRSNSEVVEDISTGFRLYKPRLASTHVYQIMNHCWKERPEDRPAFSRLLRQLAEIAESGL

[6] = target: Platelet-derived growth factor receptor beta (Homo sapiens) (UniProt P09619); test: Inhibition of human recombinant PDGFRbeta (557 to end) at 5 nM by radiometric scintillation counting analysis relative to control
Sequence of Platelet-derived growth factor receptor beta (Homo sapiens) (P09619 whole entry): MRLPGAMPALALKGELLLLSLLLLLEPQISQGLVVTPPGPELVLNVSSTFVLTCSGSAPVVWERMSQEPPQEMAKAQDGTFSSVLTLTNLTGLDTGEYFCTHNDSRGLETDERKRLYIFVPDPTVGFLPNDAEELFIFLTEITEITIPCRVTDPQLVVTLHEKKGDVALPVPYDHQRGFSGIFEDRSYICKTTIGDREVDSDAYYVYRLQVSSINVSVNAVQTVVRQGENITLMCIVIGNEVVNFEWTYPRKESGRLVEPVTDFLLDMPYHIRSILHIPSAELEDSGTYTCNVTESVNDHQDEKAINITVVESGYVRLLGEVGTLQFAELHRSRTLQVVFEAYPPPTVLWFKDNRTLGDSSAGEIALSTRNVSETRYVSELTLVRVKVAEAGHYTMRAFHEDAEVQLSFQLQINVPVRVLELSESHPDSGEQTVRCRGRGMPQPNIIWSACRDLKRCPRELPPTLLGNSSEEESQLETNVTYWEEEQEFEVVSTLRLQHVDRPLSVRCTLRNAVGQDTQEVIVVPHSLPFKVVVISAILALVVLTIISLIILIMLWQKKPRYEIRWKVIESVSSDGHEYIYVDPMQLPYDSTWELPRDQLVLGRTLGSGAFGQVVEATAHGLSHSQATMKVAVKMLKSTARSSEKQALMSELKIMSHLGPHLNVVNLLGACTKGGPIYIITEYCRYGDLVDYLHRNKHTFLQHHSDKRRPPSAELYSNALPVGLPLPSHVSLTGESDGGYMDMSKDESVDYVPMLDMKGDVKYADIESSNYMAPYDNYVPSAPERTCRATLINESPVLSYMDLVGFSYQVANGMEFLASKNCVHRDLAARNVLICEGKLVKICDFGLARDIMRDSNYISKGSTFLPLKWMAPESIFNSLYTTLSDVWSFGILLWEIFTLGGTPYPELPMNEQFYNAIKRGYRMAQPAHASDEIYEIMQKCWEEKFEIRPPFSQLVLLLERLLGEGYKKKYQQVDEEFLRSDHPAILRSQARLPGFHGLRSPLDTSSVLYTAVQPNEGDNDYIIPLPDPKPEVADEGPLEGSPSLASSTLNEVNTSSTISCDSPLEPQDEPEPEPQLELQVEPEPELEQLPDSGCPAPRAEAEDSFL

[7] = target: Tyrosine-protein kinase Srms (Homo sapiens, UniProt Q9H3Y6); test: Inhibition of human SRMS at 5 nM by radiometric scintillation counting analysis relative to control
[8] = target: Tyrosine-protein kinase Blk (Homo sapiens, UniProt P51451); test: Inhibition of human full length recombinant BLK at 50 nM by radiometric scintillation counting analysis relative to control
Sequence of Tyrosine-protein kinase Blk (P51451 2-505 limits assumed): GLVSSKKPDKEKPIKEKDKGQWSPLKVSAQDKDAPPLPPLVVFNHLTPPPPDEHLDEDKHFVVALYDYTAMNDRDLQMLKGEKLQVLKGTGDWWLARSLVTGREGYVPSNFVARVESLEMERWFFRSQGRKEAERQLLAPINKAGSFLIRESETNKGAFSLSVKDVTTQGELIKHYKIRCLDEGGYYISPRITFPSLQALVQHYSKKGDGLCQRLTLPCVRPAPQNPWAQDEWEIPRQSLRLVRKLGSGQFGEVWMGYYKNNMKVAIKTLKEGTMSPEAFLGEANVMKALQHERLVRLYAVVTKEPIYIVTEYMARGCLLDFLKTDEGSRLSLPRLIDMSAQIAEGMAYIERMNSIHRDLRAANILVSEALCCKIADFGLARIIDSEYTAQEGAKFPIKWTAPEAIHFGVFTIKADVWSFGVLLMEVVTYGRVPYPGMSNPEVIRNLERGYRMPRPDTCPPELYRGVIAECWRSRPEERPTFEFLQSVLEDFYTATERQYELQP

[9] = target: T2, Tyrosine-protein kinase CSK; test: Inhibition of human full length recombinant CSK at 50 nM by radiometric scintillation counting analysis relative to control
[10] = target: Tyrosine-protein kinase Fyn (Homo sapiens, UniProt P06241); test: Inhibition of human recombinant Fyn (218 to end) at 50 nM incubated for 15 mins relative to control
Sequence of Tyrosine-protein kinase Fyn (P06241 2-537 limits assumed): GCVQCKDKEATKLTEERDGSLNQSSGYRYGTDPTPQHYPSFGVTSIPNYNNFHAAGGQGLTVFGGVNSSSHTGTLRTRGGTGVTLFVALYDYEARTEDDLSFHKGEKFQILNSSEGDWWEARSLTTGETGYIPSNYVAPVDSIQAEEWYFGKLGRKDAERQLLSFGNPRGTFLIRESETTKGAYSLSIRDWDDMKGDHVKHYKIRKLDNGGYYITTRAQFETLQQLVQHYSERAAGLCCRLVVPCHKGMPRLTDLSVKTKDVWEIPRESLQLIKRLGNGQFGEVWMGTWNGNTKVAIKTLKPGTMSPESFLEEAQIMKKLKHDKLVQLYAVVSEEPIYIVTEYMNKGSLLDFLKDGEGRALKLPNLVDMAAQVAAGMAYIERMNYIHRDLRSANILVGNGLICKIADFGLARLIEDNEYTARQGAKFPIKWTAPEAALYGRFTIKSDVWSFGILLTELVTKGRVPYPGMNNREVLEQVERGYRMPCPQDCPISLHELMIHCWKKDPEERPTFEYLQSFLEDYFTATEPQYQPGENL

[11] = target: T4, Tyrosine-protein kinase TXK (Homo sapiens) (UniProt P42681); test: Inhibition of human recombinant […] (256 to end) at 50 nM by radiometric scintillation counting analysis relative to control
T4 sequence (whole entry): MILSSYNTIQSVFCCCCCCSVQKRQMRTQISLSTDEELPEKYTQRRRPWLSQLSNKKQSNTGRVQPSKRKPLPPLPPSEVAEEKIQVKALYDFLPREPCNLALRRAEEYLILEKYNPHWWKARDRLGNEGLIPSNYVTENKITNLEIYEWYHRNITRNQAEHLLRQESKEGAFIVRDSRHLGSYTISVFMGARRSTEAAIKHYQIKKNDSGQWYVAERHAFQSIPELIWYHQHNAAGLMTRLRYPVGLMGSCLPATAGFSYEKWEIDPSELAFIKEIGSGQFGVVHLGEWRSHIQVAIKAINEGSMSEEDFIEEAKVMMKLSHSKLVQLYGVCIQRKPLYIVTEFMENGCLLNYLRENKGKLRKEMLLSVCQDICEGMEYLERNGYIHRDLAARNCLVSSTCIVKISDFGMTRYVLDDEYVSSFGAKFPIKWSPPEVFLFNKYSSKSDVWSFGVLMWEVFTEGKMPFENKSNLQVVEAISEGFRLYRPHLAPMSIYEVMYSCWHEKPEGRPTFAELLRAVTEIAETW

[12] = target: Protein-tyrosine kinase 6 (Homo sapiens) (UniProt Q13882); test: Inhibition of human recombinant BRK (174 to 734) at 500 nM by radiometric scintillation counting analysis relative to control
Sequence of Protein-tyrosine kinase 6 (Homo sapiens) (Q13882 whole entry, looked up): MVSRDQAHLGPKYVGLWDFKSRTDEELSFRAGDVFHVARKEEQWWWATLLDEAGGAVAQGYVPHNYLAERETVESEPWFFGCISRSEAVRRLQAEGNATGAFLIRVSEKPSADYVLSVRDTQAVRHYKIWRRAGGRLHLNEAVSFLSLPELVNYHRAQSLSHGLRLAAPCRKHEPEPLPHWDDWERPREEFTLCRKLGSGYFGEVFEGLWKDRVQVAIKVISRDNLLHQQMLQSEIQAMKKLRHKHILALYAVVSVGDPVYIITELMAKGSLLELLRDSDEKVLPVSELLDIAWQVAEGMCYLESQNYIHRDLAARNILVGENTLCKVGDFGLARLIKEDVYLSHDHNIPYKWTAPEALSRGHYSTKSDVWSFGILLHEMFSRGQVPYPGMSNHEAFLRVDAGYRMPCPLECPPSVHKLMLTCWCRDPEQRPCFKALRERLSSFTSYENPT

[13] = target: Tyrosine-protein kinase Lck (Homo sapiens, UniProt P06239); test: Inhibition of human full length recombinant LCK at 500 nM by radiometric scintillation counting analysis relative to control
Sequence of Tyrosine-protein kinase Lck (P06239 2-509 limits assumed): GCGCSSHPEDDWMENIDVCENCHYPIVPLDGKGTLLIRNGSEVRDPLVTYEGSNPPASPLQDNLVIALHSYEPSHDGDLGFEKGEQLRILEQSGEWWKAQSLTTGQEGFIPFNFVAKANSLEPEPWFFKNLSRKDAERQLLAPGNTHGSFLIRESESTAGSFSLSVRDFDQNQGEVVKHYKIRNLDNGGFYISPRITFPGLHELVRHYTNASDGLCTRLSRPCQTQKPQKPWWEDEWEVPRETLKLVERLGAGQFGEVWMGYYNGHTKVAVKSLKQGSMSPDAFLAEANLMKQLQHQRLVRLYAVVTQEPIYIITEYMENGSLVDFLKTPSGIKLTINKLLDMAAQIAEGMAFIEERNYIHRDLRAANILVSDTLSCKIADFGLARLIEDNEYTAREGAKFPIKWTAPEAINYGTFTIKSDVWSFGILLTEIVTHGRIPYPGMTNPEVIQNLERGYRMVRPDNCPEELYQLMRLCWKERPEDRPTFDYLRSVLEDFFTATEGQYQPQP

[14] = target: Tyrosine-protein kinase Lyn (Homo sapiens, UniProt P07948); test: Inhibition of human full length recombinant LYN at 500 nM by radiometric scintillation counting analysis relative to control
Sequence of Tyrosine-protein kinase Lyn (P07948 2-512 limits assumed): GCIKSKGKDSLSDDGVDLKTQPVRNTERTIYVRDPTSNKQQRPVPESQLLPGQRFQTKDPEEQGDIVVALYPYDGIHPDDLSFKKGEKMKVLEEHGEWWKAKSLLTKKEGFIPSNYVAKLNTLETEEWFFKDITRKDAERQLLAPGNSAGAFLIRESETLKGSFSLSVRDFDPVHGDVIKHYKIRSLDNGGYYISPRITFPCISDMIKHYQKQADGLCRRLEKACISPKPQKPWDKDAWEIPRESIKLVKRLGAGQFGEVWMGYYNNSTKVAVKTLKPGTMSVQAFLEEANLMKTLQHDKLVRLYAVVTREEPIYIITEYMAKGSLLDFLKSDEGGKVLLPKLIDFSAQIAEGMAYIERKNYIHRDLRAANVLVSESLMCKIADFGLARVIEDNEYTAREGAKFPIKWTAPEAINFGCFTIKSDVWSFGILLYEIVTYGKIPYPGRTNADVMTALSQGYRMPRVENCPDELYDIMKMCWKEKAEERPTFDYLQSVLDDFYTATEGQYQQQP

[15] = target: Platelet-derived growth factor receptor beta (Homo sapiens) (UniProt P09619); test: Inhibition of human recombinant PDGFRbeta (557 to end) at 500 nM by radiometric scintillation counting analysis relative to control
[16] = target: RAC-alpha serine/threonine-protein kinase (Homo sapiens) (UniProt P31749); test: Inhibition of human recombinant PKBalpha at 50 nM radiometric scintillation counting analysis relative to control
Sequence of RAC-alpha serine/threonine-protein kinase (Homo sapiens) (P31749 whole entry): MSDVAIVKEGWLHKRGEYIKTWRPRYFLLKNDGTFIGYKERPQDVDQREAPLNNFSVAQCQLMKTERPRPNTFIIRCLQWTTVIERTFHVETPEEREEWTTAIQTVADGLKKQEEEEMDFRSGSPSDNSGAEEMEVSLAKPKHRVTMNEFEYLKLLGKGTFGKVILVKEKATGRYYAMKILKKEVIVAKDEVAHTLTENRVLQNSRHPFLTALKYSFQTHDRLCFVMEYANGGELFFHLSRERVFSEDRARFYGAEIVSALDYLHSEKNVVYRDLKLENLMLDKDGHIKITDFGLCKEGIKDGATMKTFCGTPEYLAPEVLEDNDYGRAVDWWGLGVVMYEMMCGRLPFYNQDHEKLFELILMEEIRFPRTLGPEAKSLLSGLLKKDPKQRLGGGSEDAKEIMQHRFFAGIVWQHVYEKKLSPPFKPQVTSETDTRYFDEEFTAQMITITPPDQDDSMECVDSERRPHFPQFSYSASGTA

| inhibition [1] | inhibition [2] | inhibition [3] | inhibition [4] | inhibition [5] | inhibition [6] | inhibition [7] | inhibition [8] | inhibition [9] | inhibition [10] | inhibition [11] | inhibition [12] | inhibition [13] | inhibition [14] | inhibition [15] | inhibition [16] | SMILES |
| --- | --- | --- | --- | --- | --- | --- | --- | --- | --- | --- | --- | --- | --- | --- | --- | --- |
| -6% | -4% | 2% | 39% | 0% | 1% | -1% | 69% | 4% | 81% | 18% | 92% | 98% | 99% | 71% | 2% | Cc1ccc(C(=O)Nc2ccc(OC(F)(F)F)cc2)cc1C#Cc1cc(-c2cnn(C)c2)cnc1N |
| 21% | 8% | 22% | 34% | -5% | 12% | 7% | 13% | 28% | 43% | 5% | 85% | 92% | 105% | 83% | 7% | Cc1ccc(C(=O)Nc2ccc(Cl)cc2Cl)cc1C#Cc1cc(-c2cnn(C)c2)cnc1N |

| SMILES | inhibition [1] | inhibition [2] | inhibition [3] | inhibition [4] | inhibition [5] | inhibition [6] | inhibition [7] | inhibition [8] | inhibition [9] | inhibition [10] | inhibition [11] | inhibition [12] | inhibition [13] | inhibition [14] | inhibition [15] | inhibition [16] |
| --- | --- | --- | --- | --- | --- | --- | --- | --- | --- | --- | --- | --- | --- | --- | --- | --- |
| Cc1ccc(C(=O)Nc2cc(C(F)(F)F)cc(C(F)(F)F)c2)cc1C#Cc1cc(-c2cnn(C)c2)cnc1N | 16% | 16% | 22% | 25% | -8% | 18% | 20% | 56% | 34% | 55% | 60% | 22% | 77% | 96% | 12% | 2% |
